Assay results: patent US11534457B2, “Use of dextran sulfate” (priority 2017, dated 2022)

Tested on: severe traumatic brain injury (sTBI)
Assay: sTBI in rats, brain gene expression arrays and pathway analysis (Example 9)
Assay type: in vivo, Male Wistar rats
Parameters: key to z score, canonical pathway Dendritic Cell Maturation / z score, canonical pathway Adrenomedullin Signaling pathway / z score, canonical pathway Endothelin-1 Signaling / effect on canonical pathway Adrenomedullin Signaling pathway / effect on canonical pathway Endothelin-1 Signaling / effect on canonical pathway Dendritic Cell Maturation / Ingenuity canonical pathway Adrenomedullin signaling pathway, z score / Ingenuity canonical pathway FLT3 Signaling in Hematopoietic Progenitor Cells, z score / Ingenuity canonical pathway Opioid Signaling Pathway, z score / Ingenuity canonical pathway VDR/RXR Activation, z score / Ingenuity canonical pathway Neuropathic Pain Signaling In Dorsal Horn Neurons, z score / Ingenuity canonical pathway STAT3 Pathway, z score / Ingenuity canonical pathway IL-1 Signaling, z score / Ingenuity canonical pathway IL-6 Signaling, z score / Ingenuity canonical pathway NF-κB Signaling, z score / Ingenuity canonical pathway Role of NFAT in Cardiac Hypertrophy, z score / Ingenuity canonical pathway PPARα/RXRα Activation, z score: *: ambiguous effect
Conditions: TBI + 5 mg/kg LMW-DS
Method: The experimental protocol used in this study was approved by the Ethical Committee of the Catholic University of Rome, according to international standards and guidelines for animal care. Male Wistar rats of 300-350 g body weight were fed with standard laboratory diet and water ad libitum in a controlled environment. As the anesthetic mixture, the animals received 35 mg/kg b.w. ketamine and 0.25 mg/kg body weight midazolam by i.p. injection. Severe traumatic brain injury (sTBI) was induced by dropping a 450 g weight from 2 m height on to the rat head that had been protected by a metal disk previously fixed on the skull, according to the “weight drop” impact acceleration model (Marmarou et al., A new model of diffuse brain injury in rats. Part I: Pathophysiology and biomechanics. J Neurosurg. 1994; 80: 291-300). […] At the end of each period of treatment, rats were anesthetized again and then immediately sacrificed.
LMW-DS (Tikomed AB) was provided at a stock concentration of 20 mg/ml and was kept in a temperature-monitored refrigerator at 4° C. LMW-DS aliquots were diluted to the appropriate dosing concentration in sterile saline prior to delivery of a single subcutaneous injection.
Three doses of LMW-DS were administered subcutaneously 30 minutes post-TBI. The animals were sacrificed at 2 days post-TBI. The animals were divided into the following subgroups:
Three doses of LMW-DS were administered subcutaneously 30 minutes post-TBI. The animals were sacrificed at 7 days post-TBI. The animals were divided into the following subgroups:
An in vivo craniectomy was performed on all animals during anesthesia. After carefully removing the rat's skull, the brain was exposed and removed with a surgical spatula and quickly dropped in RNALater and preserved at 4° C. for further processing.
RNA extraction and array processing was carried out by SourceBioscience. The arrays used were the Agilent Rat expression arrays.
Statistical analysis was carried out using the Metaboanalyst software package. Gene expression changes of 10% with a p<0.05 were regarded as significant.
Pathway analysis of the differentially regulated genes was carried out using the Ingenuity pathway analysis package. The analysis was performed with special reference to pathways and molecular processes and diseases associated with neurodegenerative disease, including dementia, Alzheimer's disease, ALS, TBI and stroke, and with scarring and fibrosis, including glaucoma and normal pressure hydrocephalus (NPH) after subarachnoid haemorrhage.

[1] = 7 days after TBI, relative to control

low molecular weight dextran sulfate [LMW-DS]
−1: Ingenuity canonical pathway Wnt/β-catenin Signaling, z score [1]
2.53: Ingenuity canonical pathway Role of NFAT in Regulation of the Immune Response, z score [1]
−2: Ingenuity canonical pathway cAMP-mediated signaling, z score [1]
Inhibited: Diseases or functions annotation: Apoptosis (after 7 days, TBI: Activated) | Diseases or functions annotation: Apoptosis of tumor cell lines (after 7 days, TBI: Activated) | Diseases or functions annotation: Bleeding (after 7 days, TBI: Activated) | Diseases or functions annotation: Breast or colorectal cancer (after 7 days, TBI: Activated) | Diseases or functions annotation: Breast or ovarian cancer (after 7 days, TBI: Activated) | Diseases or functions annotation: Cell death of tumor cell lines (after 7 days, TBI: Activated) | Diseases or functions annotation: Digestive organ tumor (after 7 days, TBI: Activated) | Diseases or functions annotation: Gastrointestinal tumor (after 7 days, TBI: Activated) | Diseases or functions annotation: Hematologic cancer (after 7 days, TBI: Activated) | Diseases or functions annotation: Hematologic cancer of cells (after 7 days, TBI: Activated) | Diseases or functions annotation: Hematopoietic neoplasm (after 7 days, TBI: Activated) | Diseases or functions annotation: Intestinal tumor (after 7 days, TBI: Activated) | Diseases or functions annotation: Lymphatic system tumor (after 7 days, TBI: Activated) | Diseases or functions annotation: Lymphocytic cancer (after 7 days, TBI: Activated) | Diseases or functions annotation: Lymphocytic neoplasm (after 7 days, TBI: Activated) | Diseases or functions annotation: Lymphoid cancer (after 7 days, TBI: Activated) | Diseases or functions annotation: Lymphoma (after 7 days, TBI: Activated) | Diseases or functions annotation: Lymphoproliferative disorder (after 7 days, TBI: Activated) | Diseases or functions annotation: Lymphoreticular neoplasm (after 7 days, TBI: Activated) | Diseases or functions annotation: Morbidity or mortality (after 7 days, TBI: Activated) | Diseases or functions annotation: Neoplasia of leukocytes (after 7 days, TBI: Activated) | Diseases or functions annotation: Organismal death (after 7 days, TBI: Activated) | Diseases or functions annotation: Sensory system development (after 7 days, TBI: Activated) | Diseases or functions annotation: Skin lesion (after 7 days, TBI: Activated) | Diseases or functions annotation: Skin tumor (after 7 days, TBI: Activated) | Diseases or functions annotation: Abdominal cancer (after 7 days, TBI: Inhibited) | Diseases or functions annotation: Abdominal carcinoma (after 7 days, TBI: Inhibited) | Diseases or functions annotation: Adenocarcinoma (after 7 days, TBI: Inhibited) | Diseases or functions annotation: Breast or pancreatic cancer (after 7 days, TBI: Inhibited) | Diseases or functions annotation: Carcinoma (after 7 days, TBI: Inhibited) | Diseases or functions annotation: Concentration of lipid (after 7 days, TBI: Inhibited) | Diseases or functions annotation: Development of genitourinary system (after 7 days, TBI: Inhibited) | Diseases or functions annotation: Digestive system cancer (after 7 days, TBI: Inhibited) | Diseases or functions annotation: Endocrine gland tumor (after 7 days, TBI: Inhibited) | Diseases or functions annotation: Growth of connective tissue (after 7 days, TBI: Inhibited) | Diseases or functions annotation: Growth of epithelial tissue (after 7 days, TBI: Inhibited) | Diseases or functions annotation: Head and neck cancer (after 7 days, TBI: Inhibited) | Diseases or functions annotation: Head and neck tumor (after 7 days, TBI: Inhibited) | Diseases or functions annotation: Nonhematologic malignant neoplasm (after 7 days, TBI: Inhibited)
1: Ingenuity canonical pathway Phospholipase C Signaling, z score [1] | Ingenuity canonical pathway Signaling by Rho Family GTPases, z score [1] | Ingenuity canonical pathway Synaptic Long Term Depression, z score [1]
*: Ingenuity canonical pathway PPARα/RXRα Activation, z score [1] | Ingenuity canonical pathway Role of NFAT in Cardiac Hypertrophy, z score [1] | Ingenuity canonical pathway STAT3 Pathway, z score [1] | Ingenuity canonical pathway VDR/RXR Activation, z score [1]
−1.342: Ingenuity canonical pathway Protein Kinase A Signaling, z score [1]
Activated: Diseases or functions annotation: Cell death (after 7 days, TBI: Activated) | Diseases or functions annotation: Cell death of epithelial cells (after 7 days, TBI: Activated) | Diseases or functions annotation: Development of sensory organ (after 7 days, TBI: Activated) | Diseases or functions annotation: Extracranial solid tumor (after 7 days, TBI: Activated) | Diseases or functions annotation: Failure of kidney (after 7 days, TBI: Activated) | Diseases or functions annotation: Formation of eye (after 7 days, TBI: Activated) | Diseases or functions annotation: Glucose metabolism disorder (after 7 days, TBI: Activated) | Diseases or functions annotation: Necrosis (after 7 days, TBI: Activated) | Diseases or functions annotation: Necrosis of epithelial tissue (after 7 days, TBI: Activated) | Diseases or functions annotation: Obesity (after 7 days, TBI: Activated) | Diseases or functions annotation: Peripheral vascular disease (after 7 days, TBI: Activated) | Diseases or functions annotation: Renal impairment (after 7 days, TBI: Activated) | Diseases or functions annotation: Abdominal adenocarcinoma (after 7 days, TBI: Inhibited) | Diseases or functions annotation: Abdominal neoplasm (after 7 days, TBI: Inhibited) | Diseases or functions annotation: Angiogenesis (after 7 days, TBI: Inhibited) | Diseases or functions annotation: Cancer (after 7 days, TBI: Inhibited) | Diseases or functions annotation: Cancer of cells (after 7 days, TBI: Inhibited) | Diseases or functions annotation: Cancer of secretory structure (after 7 days, TBI: Inhibited) | Diseases or functions annotation: Cell cycle progression (after 7 days, TBI: Inhibited) | Diseases or functions annotation: Cell movement (after 7 days, TBI: Inhibited) | Diseases or functions annotation: Cell movement of endothelial cells (after 7 days, TBI: Inhibited) | Diseases or functions annotation: Cell movement of myeloid cells (after 7 days, TBI: Inhibited) | Diseases or functions annotation: Cell movement of tumor cell lines (after 7 days, TBI: Inhibited) | Diseases or functions annotation: Cell survival (after 7 days, TBI: Inhibited) | Diseases or functions annotation: Cell viability (after 7 days, TBI: Inhibited) | Diseases or functions annotation: Cell viability of tumor cell lines (after 7 days, TBI: Inhibited) | Diseases or functions annotation: Cellular homeostasis (after 7 days, TBI: Inhibited) | Diseases or functions annotation: Chemotaxis (after 7 days, TBI: Inhibited) | Diseases or functions annotation: Development of body axis (after 7 days, TBI: Inhibited) | Diseases or functions annotation: Development of body trunk (after 7 days, TBI: Inhibited) | Diseases or functions annotation: Development of connective tissue cells (after 7 days, TBI: Inhibited) | Diseases or functions annotation: Development of epithelial tissue (after 7 days, TBI: Inhibited) | Diseases or functions annotation: Development of head (after 7 days, TBI: Inhibited) | Diseases or functions annotation: Development of neurons (after 7 days, TBI: Inhibited) | Diseases or functions annotation: Development of vasculature (after 7 days, TBI: Inhibited) | Diseases or functions annotation: Differentiation of bone (after 7 days, TBI: Inhibited) | Diseases or functions annotation: Differentiation of bone cells (after 7 days, TBI: Inhibited) | Diseases or functions annotation: Differentiation of connective tissue cells (after 7 days, TBI: Inhibited) | Diseases or functions annotation: Expression of RNA (after 7 days, TBI: Inhibited) | Diseases or functions annotation: Genital tumor (after 7 days, TBI: Inhibited) | Diseases or functions annotation: Genitourinary carcinoma (after 7 days, TBI: Inhibited) | Diseases or functions annotation: Genitourinary tumor (after 7 days, TBI: Inhibited) | Diseases or functions annotation: Growth of tumor (after 7 days, TBI: Inhibited) | Diseases or functions annotation: Invasion of cells (after 7 days, TBI: Inhibited) | Diseases or functions annotation: Leukocyte migration (after 7 days, TBI: Inhibited) | Diseases or functions annotation: Malignant genitourinary solid tumor (after 7 days, TBI: Inhibited) | Diseases or functions annotation: Malignant solid tumor (after 7 days, TBI: Inhibited) | Diseases or functions annotation: Microtubule dynamics (after 7 days, TBI: Inhibited) | Diseases or functions annotation: Migration of cells (after 7 days, TBI: Inhibited) | Diseases or functions annotation: Migration of endothelial cells (after 7 days, TBI: Inhibited) | Diseases or functions annotation: Neoplasia of cells (after 7 days, TBI: Inhibited) | Diseases or functions annotation: Non-hematological solid tumor (after 7 days, TBI: Inhibited) | Diseases or functions annotation: Non-melanoma solid tumor (after 7 days, TBI: Inhibited)
2.236: Ingenuity canonical pathway Production of Nitric Oxide and Reactive Oxygen Species in Macrophages, z score [1]
